Results from publication PMC5059578, “Construction of a Turn Off-On-Off Fluorescent System Based on Competitive Coordination of Cu^2+ between 6,7-Dihydroxycoumarin and Pyrophosphate Ion for Sensitive Assay of Pyrophosphatase Activity” (Journal of Analytical Methods in Chemistry, 2016).

Target: T1, Baker's yeast inorganic pyrophosphatase (PPase, EC 3.6.1.1) (Saccharomyces cerevisiae, UniProt P00817)
T1 construct: gene IPP1
Test: Fluorescent Cu2+-DHC-PPi displacement assay of PPase activity after preincubation with NaF
Assay type: biochemical

T1 sequence (P00817 2-287): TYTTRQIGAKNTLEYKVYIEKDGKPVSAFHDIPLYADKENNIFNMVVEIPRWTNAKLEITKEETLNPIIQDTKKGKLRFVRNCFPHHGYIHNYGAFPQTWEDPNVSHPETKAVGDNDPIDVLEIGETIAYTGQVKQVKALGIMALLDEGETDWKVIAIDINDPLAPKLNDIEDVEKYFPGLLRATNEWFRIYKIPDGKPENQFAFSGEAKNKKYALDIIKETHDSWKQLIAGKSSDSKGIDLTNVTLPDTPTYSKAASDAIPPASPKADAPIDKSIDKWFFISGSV

Q: For `[F-].[Na+]` [NaF], which IC50 is on record?
A: ~18.2 µM
